Measured values as given in patent US20250360145A1, “CSF-1R INHIBITORS AND USES THEREOF” (Myrobalan Therapeutics, Inc., priority 2022, published 2025).
Where two headings read alike, the source gives them in different places.

Key:
CSF-1R = CSF-1R (Homo sapiens (Human), UniProt P07333); assay: Biochemical HTRF kinase assay, CSF-1R; conditions: recombinant human CSF-1R;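 further: enzyme incubated with inhibitor plus a substrate and ATP mix for one hour at room temperature before HTRF detection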
c-Kit = c-Kit (Homo sapiens (Human), UniProt P10721); assay: Biochemical HTRF kinase assay, c-Kit; conditions: for IC50: recombinant human protein, read-out: cKit IC50; for cKit Fold: selectivity: IC50 of cKit as multiple of IC50 of CSF-1R;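 on all read-outs here: enzyme reaction with substrate and ATP run in 384-well plates for 1 hour at room temperature, kinase activity detected by HTRF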
FLT3 = FLT3 (Homo sapiens (Human), UniProt P36888); assay: Biochemical HTRF kinase assay, FLT3; conditions: for IC50: recombinant human protein; for FLT3 Fold: selectivity: IC50 of FLT3 as multiple of IC50 of CSF-1R
PDGFRβ = PDGFRβ (Homo sapiens (Human), UniProt P09619); assay: Biochemical HTRF kinase assay, PDGFRβ; conditions: for IC50: recombinant human protein, read-out: PDGFR-1β IC50; for PDGFR-1β Fold: selectivity: IC50 of PDGFR-1β as multiple of IC50 of CSF-1R;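 on all read-outs here: kinase reaction with substrate/ATP mix run 1 h at room temperature in 384-well format, HTRF signal detection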
[1] = tested on: Ba/F3_CSF-1R (stably expressing human CSF-1R kinase); assay: Cell proliferation assay, Ba/F3_CSF-1R; assay type: cell-based; conditions: Ba/F3_CSF-1R cells, 72 hours treatment, read-out: CSF-1R BaF3 EC50
EOC2 cell = assay: Cell proliferation assay, EOC2; assay type: cell-based, mouse; conditions: EOC2 cells, 72 hours treatment, read-out: ECO2 EC50

Sequence of CSF-1R (P07333 20-972): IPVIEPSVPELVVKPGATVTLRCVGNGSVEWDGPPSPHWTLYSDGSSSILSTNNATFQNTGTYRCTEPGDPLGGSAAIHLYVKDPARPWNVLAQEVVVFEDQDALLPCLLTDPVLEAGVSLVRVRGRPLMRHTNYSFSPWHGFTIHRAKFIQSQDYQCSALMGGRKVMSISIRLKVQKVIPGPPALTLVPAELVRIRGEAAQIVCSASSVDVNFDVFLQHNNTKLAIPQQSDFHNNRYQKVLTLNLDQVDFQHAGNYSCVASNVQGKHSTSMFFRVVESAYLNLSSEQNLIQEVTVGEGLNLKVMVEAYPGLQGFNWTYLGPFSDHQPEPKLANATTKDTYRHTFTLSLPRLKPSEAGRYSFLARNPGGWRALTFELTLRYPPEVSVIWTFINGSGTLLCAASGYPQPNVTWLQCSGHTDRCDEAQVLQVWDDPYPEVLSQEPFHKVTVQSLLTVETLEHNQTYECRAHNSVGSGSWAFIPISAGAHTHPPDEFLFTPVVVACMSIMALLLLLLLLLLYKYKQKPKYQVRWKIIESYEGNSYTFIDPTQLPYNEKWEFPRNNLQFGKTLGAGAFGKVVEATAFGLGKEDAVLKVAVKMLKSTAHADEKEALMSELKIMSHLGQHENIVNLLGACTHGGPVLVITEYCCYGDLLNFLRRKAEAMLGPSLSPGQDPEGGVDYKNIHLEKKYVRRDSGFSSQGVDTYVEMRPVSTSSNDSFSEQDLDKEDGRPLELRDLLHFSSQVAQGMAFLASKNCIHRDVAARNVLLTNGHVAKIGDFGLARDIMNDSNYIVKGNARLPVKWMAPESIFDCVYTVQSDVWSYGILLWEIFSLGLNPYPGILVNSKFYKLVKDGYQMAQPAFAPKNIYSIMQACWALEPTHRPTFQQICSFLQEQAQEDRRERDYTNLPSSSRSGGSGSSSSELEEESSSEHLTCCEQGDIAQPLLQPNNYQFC
Sequence of c-Kit (P10721 26-976): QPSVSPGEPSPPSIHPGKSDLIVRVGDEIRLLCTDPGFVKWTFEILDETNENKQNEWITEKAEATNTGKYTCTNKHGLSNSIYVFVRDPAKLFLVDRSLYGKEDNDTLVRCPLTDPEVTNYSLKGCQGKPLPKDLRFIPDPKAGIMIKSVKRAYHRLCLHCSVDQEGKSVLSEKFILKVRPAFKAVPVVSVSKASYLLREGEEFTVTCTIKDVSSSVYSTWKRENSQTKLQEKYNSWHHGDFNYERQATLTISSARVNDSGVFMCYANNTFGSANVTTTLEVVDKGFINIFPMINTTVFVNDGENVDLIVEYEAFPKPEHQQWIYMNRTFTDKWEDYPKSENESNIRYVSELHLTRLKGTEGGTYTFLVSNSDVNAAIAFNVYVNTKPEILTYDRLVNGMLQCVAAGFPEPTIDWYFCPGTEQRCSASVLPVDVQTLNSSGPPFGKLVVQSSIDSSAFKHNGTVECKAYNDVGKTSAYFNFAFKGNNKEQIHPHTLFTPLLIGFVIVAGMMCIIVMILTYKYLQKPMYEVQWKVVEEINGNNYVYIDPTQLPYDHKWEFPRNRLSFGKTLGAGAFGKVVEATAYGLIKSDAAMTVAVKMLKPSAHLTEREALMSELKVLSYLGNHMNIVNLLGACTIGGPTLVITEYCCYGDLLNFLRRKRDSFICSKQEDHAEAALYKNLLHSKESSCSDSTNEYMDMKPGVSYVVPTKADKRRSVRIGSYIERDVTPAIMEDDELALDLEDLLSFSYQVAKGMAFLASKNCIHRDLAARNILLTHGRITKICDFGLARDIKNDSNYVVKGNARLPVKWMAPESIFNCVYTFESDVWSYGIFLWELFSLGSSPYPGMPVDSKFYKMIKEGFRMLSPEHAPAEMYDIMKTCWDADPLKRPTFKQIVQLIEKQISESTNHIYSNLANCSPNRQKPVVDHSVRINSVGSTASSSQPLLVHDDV
Sequence of FLT3 (P36888 27-993): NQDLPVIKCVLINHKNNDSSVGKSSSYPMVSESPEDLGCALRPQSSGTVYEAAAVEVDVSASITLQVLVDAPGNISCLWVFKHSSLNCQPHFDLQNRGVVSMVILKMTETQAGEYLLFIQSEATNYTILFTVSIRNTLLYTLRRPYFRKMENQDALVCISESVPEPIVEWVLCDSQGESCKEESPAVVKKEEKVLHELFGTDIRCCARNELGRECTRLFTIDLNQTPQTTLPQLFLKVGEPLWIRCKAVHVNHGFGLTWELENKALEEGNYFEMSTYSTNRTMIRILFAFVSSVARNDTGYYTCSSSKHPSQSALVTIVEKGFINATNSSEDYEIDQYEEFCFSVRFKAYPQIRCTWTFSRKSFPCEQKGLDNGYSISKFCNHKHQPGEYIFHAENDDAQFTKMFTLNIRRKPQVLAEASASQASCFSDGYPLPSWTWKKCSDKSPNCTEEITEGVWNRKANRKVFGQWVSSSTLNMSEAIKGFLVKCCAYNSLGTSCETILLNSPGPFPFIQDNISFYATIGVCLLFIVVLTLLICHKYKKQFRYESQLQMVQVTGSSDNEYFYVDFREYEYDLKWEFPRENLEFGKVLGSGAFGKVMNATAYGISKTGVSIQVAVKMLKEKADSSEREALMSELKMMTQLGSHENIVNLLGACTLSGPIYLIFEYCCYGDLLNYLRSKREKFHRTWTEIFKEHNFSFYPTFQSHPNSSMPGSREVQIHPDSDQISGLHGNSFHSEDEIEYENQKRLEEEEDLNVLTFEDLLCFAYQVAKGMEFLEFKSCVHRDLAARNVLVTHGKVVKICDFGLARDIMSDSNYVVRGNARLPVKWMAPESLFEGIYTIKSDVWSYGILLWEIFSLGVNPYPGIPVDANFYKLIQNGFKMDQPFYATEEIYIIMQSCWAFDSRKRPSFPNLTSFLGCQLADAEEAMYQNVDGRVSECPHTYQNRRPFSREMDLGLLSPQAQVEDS
Sequence of PDGFRβ (P09619 33-1106): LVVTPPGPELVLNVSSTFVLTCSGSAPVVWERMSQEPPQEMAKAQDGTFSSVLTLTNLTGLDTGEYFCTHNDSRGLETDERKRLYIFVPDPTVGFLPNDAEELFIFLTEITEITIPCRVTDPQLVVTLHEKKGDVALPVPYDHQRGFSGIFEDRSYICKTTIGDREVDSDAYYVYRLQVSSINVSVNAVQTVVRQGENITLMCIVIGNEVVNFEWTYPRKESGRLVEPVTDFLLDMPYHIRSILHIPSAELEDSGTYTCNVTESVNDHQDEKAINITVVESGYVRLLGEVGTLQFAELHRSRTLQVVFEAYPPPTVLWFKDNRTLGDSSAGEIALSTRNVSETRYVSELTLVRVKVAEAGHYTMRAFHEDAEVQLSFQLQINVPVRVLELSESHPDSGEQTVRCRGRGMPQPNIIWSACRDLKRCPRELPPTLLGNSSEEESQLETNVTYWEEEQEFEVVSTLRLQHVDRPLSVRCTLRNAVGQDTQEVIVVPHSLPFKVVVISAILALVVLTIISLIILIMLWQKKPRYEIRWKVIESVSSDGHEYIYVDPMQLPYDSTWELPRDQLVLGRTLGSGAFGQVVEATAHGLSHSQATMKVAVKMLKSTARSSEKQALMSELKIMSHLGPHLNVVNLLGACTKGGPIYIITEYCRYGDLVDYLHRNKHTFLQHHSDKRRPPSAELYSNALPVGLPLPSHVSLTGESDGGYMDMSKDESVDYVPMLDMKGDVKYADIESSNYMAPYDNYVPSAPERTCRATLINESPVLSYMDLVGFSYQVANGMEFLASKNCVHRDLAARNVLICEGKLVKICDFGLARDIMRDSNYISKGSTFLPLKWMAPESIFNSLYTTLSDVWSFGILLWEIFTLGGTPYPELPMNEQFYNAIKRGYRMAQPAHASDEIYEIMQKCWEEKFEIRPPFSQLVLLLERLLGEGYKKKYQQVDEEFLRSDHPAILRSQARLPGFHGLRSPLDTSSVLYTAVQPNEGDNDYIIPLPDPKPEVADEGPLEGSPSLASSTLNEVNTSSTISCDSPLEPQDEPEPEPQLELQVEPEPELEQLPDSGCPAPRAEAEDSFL

| Structure (SMILES) | IC50 (CSF-1R; Table 2) [nM] | IC50 (CSF-1R; Table 3) [nM] | IC50 (c-Kit) [nM] | cKit Fold (c-Kit) [fold] | IC50 (FLT3) [nM] | FLT3 Fold (FLT3) [fold] | IC50 (PDGFRβ) [nM] | PDGFR-1β Fold (PDGFRβ) [fold] | EC50 ([1]; BaF3, 72 h) [nM] | EC50 (EOC2 cell; Mus musculus, 72 h) [nM] | EC50 [1] [nM] | EC50 (EOC2 cell) [nM] |
| --- | --- | --- | --- | --- | --- | --- | --- | --- | --- | --- | --- | --- |
| [2H]C([2H])([2H])Oc1ccc(COc2ncc(Cc3ccnc4cc(OC)cnc34)cc2OC)nc1 [Example 78] | 6.7 | 6.7 | > 1000 | >100 | > 1000 | >100 | 947 | >100 | 143 | 48.4 |  |  |
| COc1cnc2c(Cc3cnc(OCc4cc5n(n4)C[C@H](F)C5)c(OC)c3)ccnc2c1 [Example 112] | 4.7 | 4.7 | > 1000 | >100 | > 1000 | >100 | 874 | >100 | 168 | 102 |  |  |
| COc1cnc2c(Cc3cnc(OCc4cc5n(n4)CCC5)c(OC)c3)ccnc2c1 [Example 72] | 2.2 | 2.2 | > 1000 | >100 | > 1000 | >100 | > 1000 | >100 | 74.6 | 58.9 |  |  |
| COc1cnc2c(Cc3cnc(OCc4cc5n(n4)CC4CC54)c(OC)c3)ccnc2c1 (centres unmarked) [Example 101] | 1.9 | 1.9 | 715 | >100 | > 1000 | >100 | 839 | >100 | 77.7 | 48.3 |  |  |
| COc1cnc2c(Cc3cnc(OCc4ccc([C@H]5CC5(F)F)cn4)c(OC)c3)ccnc2c1 (stereo in doubt) [Example 81] | 5.1 | 5.1 | > 1000 | >100 | > 1000 | >100 | 371 | 72.7 |  |  | 25.8 | 60.9 |
| [2H]C([2H])([2H])Oc1cnc2c(Cc3cnc(OCc4ccc(OC)cn4)c(OC)c3)ccnc2c1 [Example 79] | 3.6 | 3.6 | > 1000 | >100 | > 1000 | >100 | 684 | >100 | 118 | 60.4 |  |  |
| COc1cnc2c(Cc3cnc(OCc4cc(C)n(C)n4)c(OC)c3)ccnc2c1 [Example 82] | 4.6 | 4.6 | > 1000 | >100 | > 1000 | >100 | > 1000 | >100 | 161 | 116 |  |  |
| COc1cnc2c(Cc3cnc(OCc4cc(C(C)C)no4)c(OC)c3)ccnc2c1 [Example 83] | 1.2 | 1.2 | > 1000 | >100 | > 1000 | >100 | 158 | >100 | 26.7 | 37 |  |  |
| [2H]C([2H])([2H])Oc1cc(Cc2ccnc3cc(OC)cnc23)cnc1OCc1ccc(OC)cn1 [Example 74] | 3.3 | 3.3 | > 1000 | >100 | > 1000 | >100 | > 1000 | >100 | 100 | 33.3 |  |  |
| COc1cnc2c(Cc3cnc(OCc4cnc5c(c4)OCCN5C)c(OC)c3)ccnc2c1 [Example 87] | 0.83 | 0.83 | > 1000 | >100 | > 1000 | >100 | 208 | >100 | 86.3 | 92 |  |  |
| COc1cnc2c(Cc3cnc(OCc4ccc(C)cn4)c(OC)c3)ccnc2c1 [Example 55] | 3.2 | 3.2 | 785 | >100 | > 1000 | >100 | 322 | >100 | 155 | 45.4 |  |  |
| COc1cnc2c(Cc3ccc4nc([C@H]5CC[C@@H](OC)CC5)cnc4c3)ccnc2c1 [Example 155] | 258 |  |  |  |  |  |  |  |  |  | 607 | > 1000 |
| COc1cnc2c(Cc3ccc4nc([C@H]5CC[C@@H](OC)CC5)cnc4c3)ccnc2c1 [Example 154] | 28.6 |  |  |  |  |  |  |  | 329 |  |  | 199 |
| COc1ccc(COc2ncc(Cc3ccnc4cc(C#N)cnc34)cc2OC)nc1 [Example 65, 8-((5-methoxy-6-((5-methoxypyridin-2-yl)methoxy)pyridin-3-yl)methyl)-1,5-naphthyridine-3-carbonitrile] | 26.9 |  |  |  |  |  |  |  | 787 | > 1000 |  |  |
| COc1cnc2c(Cc3cnc(OCc4cc5n(n4)CCOC5C)c(OC)c3)ccnc2c1 (centres unmarked) [Example 98] | 4.7 |  |  |  |  |  |  |  | 57.3 | 54.7 |  |  |
| COc1ccc2c(Cc3ccc(OCc4ccc5ccnn5c4)c(OC)c3)ccnc2c1 [Example 20] | 11 |  |  |  |  |  |  |  | 134 | 130 |  |  |
| COc1cnc2c(Cc3cnc(OCc4cnc(OC)cn4)c(OC)c3)ccnc2c1 [Example 44] | 8.6 |  |  |  |  |  |  |  | 457 | 171 |  |  |
| COc1ccc(COc2ncc(C(F)c3ccnc4cc(OC)cnc34)cc2OC)nc1 (centres unmarked) [Example 84, 8-(fluoro(5-methoxy-6-((5-methoxypyridin-2-yl)methoxy)pyridin-3-yl)methyl)-3-methoxy-1,5-naphthyridine] | 28.4 |  |  |  |  |  |  |  | > 1000 | > 1000 |  |  |

| Structure (SMILES) | IC50 (CSF-1R; Table 2) [nM] | IC50 (CSF-1R; Table 3) [nM] | IC50 (c-Kit) [nM] | cKit Fold (c-Kit) [fold] | IC50 (FLT3) [nM] | FLT3 Fold (FLT3) [fold] | IC50 (PDGFRβ) [nM] | PDGFR-1β Fold (PDGFRβ) [fold] | EC50 ([1]; BaF3, 72 h) [nM] | EC50 (EOC2 cell; Mus musculus, 72 h) [nM] | EC50 [1] [nM] | EC50 (EOC2 cell) [nM] |
| --- | --- | --- | --- | --- | --- | --- | --- | --- | --- | --- | --- | --- |
| COc1ccc(COc2ncc(Cc3ccnc4cc(N5CCC5)cnc34)cc2OC)nc1 [Example 127] | 22.3 |  |  |  |  |  |  |  | 28 | 25.4 |  |  |
| COc1cnc2c(Cc3cnc(OCc4cc5n(n4)CCO[C@H]5C)c(OC)c3)ccnc2c1 (stereo in doubt) [Example 114] | 1.7 |  |  |  |  |  |  |  |  |  | 75.7 | 37.9 |
| COc1ccc(COc2ccc(Cc3ccnc4ccncc34)cc2OC)cc1 [Example 17] | 5.7 |  |  |  |  |  |  |  | 185 | 180 |  |  |
| COc1cnc2c(Cc3cnc(OCc4ccnn4C)c(OC)c3)ccnc2c1 [Example 49] | 62.1 |  |  |  |  |  |  |  | > 1000 | > 1000 |  |  |
| COc1cnc2c(Cc3cnc(OCc4ccc5ccnn5c4)c(OC)c3)ccnc2c1 [Example 148] | 6.3 |  |  |  |  |  |  |  | 37.3 | 49.8 |  |  |
| COc1cnc2c(Cc3cnc(OCc4cc(C)on4)c(OC)c3)ccnc2c1 [Example 51] | 105 |  |  |  |  |  |  |  | 590 | 225 |  |  |
| COc1ccc(COc2ncc(Cc3ccnc4cc(OC)cnc34)cc2OC(F)F)nc1 [Example 68, 8-((5-(difluoromethoxy)-6-((5-methoxypyridin-2-yl)methoxy)pyridin-3-yl)methyl)-3-methoxy-1,5-naphthyridine] | 99.2 |  |  |  |  |  |  |  | > 1000 | > 1000 |  |  |
| COc1cnc2c(Cc3cnc(OCc4cnc(C)s4)c(OC)c3)ccnc2c1 [Example 42] | 14.7 |  |  |  |  |  |  |  | 510 | 408 |  |  |
| COc1ccc(COc2ncc(Cc3ccnc4cc(-c5cnn(C)c5)cnc34)cc2OC)nc1 [Example 130] | 1.6 |  |  |  |  |  |  |  | 2 | 1.5 |  |  |
| [2H]C([2H])(c1cnc(OCc2ccc(OC)cn2)c(OC)c1)c1ccnc2cc(OC)cnc12 [Example 95] | 3.4 |  |  |  |  |  |  |  | 42.2 | 54.3 |  |  |
| COc1cnc2c(Cc3cnc(OCc4cc5n(n4)CCN(C)C5)c(OC)c3)ccnc2c1 [Example 75] | 32 |  |  |  |  |  |  |  | 949 | 448 |  |  |
| COc1cnc2c(Cc3cnc(OCc4cc(C5CC5)n(C)n4)c(OC)c3)ccnc2c1 [Example 109] | 1.1 |  |  |  |  |  |  |  | 102 | 43.7 |  |  |
| COc1cnc2c(Cc3cnc(OCc4cc(C)n(C5CN(C)C5)n4)c(OC)c3)ccnc2c1 [Example 91] | 40.6 |  |  |  |  |  |  |  | 753 | 388 |  |  |
| COc1cnc2c(Cc3cnc(OCc4ccn(C)n4)c(OC)c3)ccnc2c1 [Example 48] | 8.2 |  |  |  |  |  |  |  | 586 | 296 |  |  |
| COc1cnc2c(Cc3cnc(OCc4cccc(=O)n4C)c(OC)c3)ccnc2c1 [Example 125] | 522 |  |  |  |  |  |  |  | > 1000 | 950 |  |  |
| COc1cnc2c(Cc3cnc(OCc4cc(C(C)C)nn4C)c(OC)c3)ccnc2c1 [Example 106] | 2.6 |  |  |  |  |  |  |  | 95.9 | 76.3 |  |  |
| COc1cnc2c(Cc3cnc(OCc4ccc(OC)nn4)c(OC)c3)ccnc2c1 [Example 32, 3-methoxy-8-((5-methoxy-6-((6-methoxypyridazin-3-yl)methoxy)pyridin-3-yl)methyl)-1,5-naphthyridine] | 20.1 |  |  |  |  |  |  |  | 267 | 129 |  |  |
| COc1ccc(COc2ncc(Cc3ccnc4cc(N5CC(F)(F)C5)cnc34)cc2OC)nc1 [Example 144] | 11.3 |  |  |  |  |  |  |  | 10.7 | 25.3 |  |  |
